# Assays:
# [1] = target: JAK1 (recombinant purified GST-tagged catalytic domain) (Homo sapiens (Human), UniProt P23458); assay: biochemical;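 further: biochemical assay with HTRF read-out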
# [2] = target: JAK2 (recombinant purified GST-tagged catalytic domain) (Homo sapiens (Human), UniProt O60674); assay: biochemical;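 further: biochemical JAK kinase assay with HTRF detection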
# JAK2 (recombinant purified GST-tagged catalytic domain), sequence (O60674 849-1124): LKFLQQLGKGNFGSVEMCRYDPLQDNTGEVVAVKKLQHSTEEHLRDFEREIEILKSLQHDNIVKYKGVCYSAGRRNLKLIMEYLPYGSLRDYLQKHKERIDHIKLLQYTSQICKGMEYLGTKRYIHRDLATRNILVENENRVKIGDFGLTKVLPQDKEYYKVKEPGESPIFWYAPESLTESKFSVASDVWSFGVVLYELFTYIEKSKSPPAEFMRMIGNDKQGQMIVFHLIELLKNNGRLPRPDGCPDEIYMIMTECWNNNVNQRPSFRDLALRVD
# JAK1 (recombinant purified GST-tagged catalytic domain), sequence (P23458 875-1153): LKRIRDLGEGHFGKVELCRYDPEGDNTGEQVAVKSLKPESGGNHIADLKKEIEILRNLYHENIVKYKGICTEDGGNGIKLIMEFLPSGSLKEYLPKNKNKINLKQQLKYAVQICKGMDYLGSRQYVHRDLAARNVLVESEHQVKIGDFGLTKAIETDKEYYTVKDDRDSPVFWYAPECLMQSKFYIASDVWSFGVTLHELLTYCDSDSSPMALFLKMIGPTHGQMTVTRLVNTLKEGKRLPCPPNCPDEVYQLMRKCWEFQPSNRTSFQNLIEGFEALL
IC50 [1],IC50 [2],SMILES
4 nM,152 nM,"N#C[C@H]1C[C@@H](N[C@@H](C2CC2)C(F)(F)F)CC[C@@H]1n1cc(C(N)=O)c(Nc2ccc(C(F)(F)F)cc2)n1 (single isomer, unassigned) [Example 28-194, 1-[(1S,2S,4S or 1R,2R,4R)-2-cyano-4-{[(1S)-1-cyclopropyl-2,2,2-trifluoroethyl]amino}cyclo-hexyl]-3-{[4-(trifluoromethyl)phenyl]amino}-1H-pyrazole-4-carboxamide]"
0.5 nM,5 nM,"CS(=O)(=O)N[C@H]1CC[C@H](n2cc(C(N)=O)c(Nc3ccc(Cl)cc3)n2)[C@@H](C#N)C1 (racemic) [Example 38-4, 3-[(4-chlorophenyl)amino]-1-{(1S,2S,4R and 1R,2R,4S)-2-cyano-4-[(methylsulfonyl)amino]cyclohexyl}-1H-pyrazole-4-carboxamide]"
0.7 nM,23 nM,"N#C[C@H]1C[C@@H](N2CCC2)CC[C@@H]1n1cc(C(N)=O)c(Nc2ccc(OC(F)(F)F)cc2)n1 (single isomer, unassigned) [Example 28-58, 1-[(1S,2S,4S or 1R,2R,4R)-4-azetidin-1-yl-2-cyanocyclohexyl]-3-{[4-(trifluoromethoxy)phenyl]amino}-1H-pyrazole-4-carboxamide]"
37 nM,295 nM,"N#C[C@H]1C[C@@H](C(=O)NC2CC2)CC[C@@H]1n1cc(C(N)=O)c(Nc2ccc(Cl)cc2)n1 (single isomer, unassigned) [Example 35-23, 3-[(4-chlorophenyl)amino]-1-[(1S,2S,4S or 1R,2R,4R)-2-cyano-4-(cyclopropylcarbamoyl)cyclohexyl]-1H-pyrazole-4-carboxamide]"
0.4 nM,49 nM,"CC(C)(O)C1CN([C@@H]2CC[C@H](n3cc(C(N)=O)c(Nc4ccc(C(F)(F)F)cc4)n3)[C@@H](C#N)C2)C1 (single isomer, unassigned) [Example 28-7, 1-{(1S,2S,4R or 1R,2R,4S)-2-cyano-4-[3-(1-hydroxy-1-methylethyl)azetidin-1-yl]cyclohexyl}-3-{[4-(trifluoro-methyl)phenyl]amino}-1H-pyrazole-4-carboxamide]"
4 nM,17 nM,"N#C[C@H]1C[C@H](O)CC[C@@H]1n1cc(C(N)=O)c(Nc2ccc(C(F)(F)F)nc2)n1 (single isomer, unassigned) [Example 25-10, 1-[(1S,2S,4R or 1R,2R,4S)-2-cyano-4-hydroxycyclohexyl]-3-{[6-(trifluoromethyl)pyridin-3-yl]amino}-1H-pyrazole-4-carboxamide]"
1 nM,61 nM,"CC1CN([C@H]2CC[C@H](n3cc(C(N)=O)c(Nc4ccc(C(F)(F)F)cc4)n3)[C@@H](C#N)C2)C1 (single isomer, unassigned) [Example 28-121, 1-[(1S,2S,4S or 1R,2R,4R)-2-cyano-4-(3-methylazetidin-1-yl)cyclohexyl]-3-{[4-(trifluoromethyl)phenyl]amino}-1H-pyrazole-4-carboxamide]"
1 nM,11 nM,"N#C[C@H]1CCCC[C@@H]1n1cc(C(N)=O)c(Nc2ccc(Br)cc2)n1 (single isomer, unassigned) [Example 17-26, 3-[(4-bromophenyl)amino]-1-[(1S,2S or 1R,2R)-2-cyanocyclohexyl]-1H-pyrazole-4-carboxamide]"
0.2 nM,0.9 nM,"N#C[C@H]1CCCC[C@@H]1n1cc(C(N)=O)c(Nc2ccc(S(=O)(=O)NCc3ccccc3)cc2)n1 (single isomer, unassigned) [Example 17-83, 3-{[4-(benzylsulfamoyl)phenyl]amino}-1-[(1R,2R or 1S,2S)-2-cyanocyclohexyl]-1H-pyrazole-4-carboxamide]"
0.3 nM,1 nM,"N#C[C@H]1CCCC[C@@H]1n1cc(C(N)=O)c(Nc2ccc(S(=O)(=O)NCc3cccnc3)cc2)n1 (single isomer, unassigned) [Example 17-84, 1-[(1R,2R or 1S,2S)-2-cyanocyclohexyl]-3-({4-[(pyridin-3-ylmethyl)sulfamoyl]phenyl}amino)-1H-pyrazole-4-carboxamide]"
1 nM,122 nM,"N#C[C@H]1C[C@H](N2CC3(CCC3)C2)CC[C@@H]1n1cc(C(N)=O)c(Nc2ccnc(F)c2)n1 (single isomer, unassigned) [Example 28-143, 1-[(1S,2S,4R or 1R,2R,4S)-4-(2-azaspiro[3.3]hept-2-yl)-2-cyanocyclohexyl]-3-[(2-fluoropyridin-4-yl)amino]-1H-pyrazole-4-carboxamide]"
0.4 nM,7 nM,"N#C[C@H]1CC(NC2CCS(=O)(=O)C2)CC[C@@H]1n1cc(C(N)=O)c(Nc2ccc(S(=O)(=O)C(F)(F)F)cc2)n1 (single isomer, unassigned) [Example 28-153, 1-{(1S,2S or 1R,2R)-2-cyano-4-[(1,1-dioxidotetrahydrothiophen-3-yl)amino]cyclohexyl}-3-({4-[(trifluoromethyl)sulfonyl]phen-yl}amino)-1H-pyrazole-4-carboxamide]"
0.45 nM,23 nM,"N#C[C@H]1C[C@@H](NCC2(O)CC2)CC[C@@H]1n1cc(C(N)=O)c(Nc2ccc(C(F)(F)F)cc2)n1 (single isomer, unassigned) [Example 28-23, 1-[(1S,2S,4S or 1R,2R,4R)-2-cyano-4-{[(1-hydroxycyclo-propyl)methyl]amino}cyclo-hexyl]-3-{[4-(trifluoromethyl)phenyl]amino}-1H-pyrazole-4-carboxamide]"
0.45 nM,3 nM,"N#C[C@H]1C[C@@H](O)CC[C@@H]1n1cc(C(N)=O)c(Nc2ccc([C@@H](O)C(F)(F)F)cc2)n1 (single isomer, unassigned) [Example 33-11, 1-[(1S,2S,4S or 1R,2R,4R)-2-cyano-4-hydroxycyclohexyl]-3-({4-[(1R or 1S)-2,2,2-trifluoro-1-hydroxyethyl]phenyl}amino)-1H-pyrazole-4-carboxamide]"
5 nM,164 nM,"N#C[C@H]1C[C@@H](OC(=O)NC2CCCCC2)CCC1n1cc(C(N)=O)c(Nc2ccc(F)cc2)n1 (mixture of isomers) [Example 34-2, (1S,3S,4S and 1R,3R,4R)-4-{4-carbamoyl-3-[(4-fluorophenyl)amino]-1H-pyrazol-1-yl}-3-cyanocyclohexyl cyclohexylcarbamate]"
3 nM,60 nM,"Cn1cc(-c2cc(Nc3nn([C@H]4CCCC[C@@H]4C#N)cc3C(N)=O)ccn2)cn1 (racemic) [Example 17-22, 1-[(1S,2S and 1R,2R)-2-cyanocyclohexyl]-3-{[2-(1-methyl-1H-pyrazol-4-yl)pyridin-4-yl]amino}-1H-pyrazole-4-carboxamide]"
8 nM,215 nM,"C[C@H](N[C@@H]1CC[C@H](n2cc(C(N)=O)c(Nc3ccc(Cl)c(F)c3)n2)[C@@H](C#N)C1)C1CC1 (single isomer, unassigned) [Example 28-48, 3-[(4-chloro-3-fluorophenyl)amino]-1-[(1S,2S,4R or 1R,2R,4S)-2-cyano-4-{[(1S or 1R)-1-cyclopropylethyl]amino}cyclo-hexyl]-1H-pyrazole-4-carboxamide]"
0.12 nM,7 nM,"CC(C)(C(=O)O)c1ccc(Nc2nn([C@@H]3CCCC[C@H]3C#N)cc2C(N)=O)cc1 (single isomer, unassigned) [Example 17-43, 2-[4-({4-carbamoyl-1-[(1R,2R or 1S,2S)-2-cyanocyclohexyl]-1H-pyrazol-3-yl}amino)phenyl]-2-methylpropanoic acid]"
0.75 nM,39 nM,"N#C[C@H]1C[C@@H](N2CCC2)CC[C@@H]1n1cc(C(N)=O)c(Nc2ccccc2)n1 (single isomer, unassigned) [Example 28-4, 1-((1R,2R,4R or 1S,2S,4S)-4-(Azetidin-1-yl)-2-cyanocyclohexyl)-3-(phenylamino)-1H-pyrazole-4-carboxamide]"
9 nM,24 nM,"COc1cccc(N2CCN(S(=O)(=O)c3ccc(Nc4nn([C@H]5CCCC[C@@H]5C#N)cc4C(N)=O)cc3)CC2)c1 (single isomer, unassigned) [Example 17-97, 1-[(1R,2R or 1S,2S)-2-cyanocyclohexyl]-3-[(4-{[4-(3-methoxyphenyl)piperazin-1-yl]sulfonyl}phenyl)amino]-1H-pyrazole-4-carboxamide]"
21 nM,172 nM,"N#C[C@H]1C[C@@H](C(=O)NC2CC(F)(F)C2)CC[C@@H]1n1cc(C(N)=O)c(Nc2ccc(Cl)cc2)n1 (single isomer, unassigned) [Example 35-20, 3-[(4-chlorophenyl)amino]-1-{(1S,2S,4S or 1R,2R,4R)-2-cyano-4-[(3,3-difluorocyclobutyl)carbamoyl]cyclohexyl}-1H-pyrazole-4-carboxamide]"
0.95 nM,11 nM,"N#C[C@H]1CCCC[C@@H]1n1cc(C(N)=O)c(Nc2ccc(Cl)cc2)n1 (single isomer, unassigned) [Example 17-107, 3-[(4-chlorophenyl)amino]-1-[(1S,2S or 1R,2R)-2-cyanocyclohexyl]-1H-pyrazole-4-carboxamide]"
19 nM,123 nM,"N#C[C@H]1CCCC[C@@H]1n1cc(C(N)=O)c(Nc2ccnc(C(F)(F)F)c2)n1 (racemic) [Example 17-3, 1-[(1S,2S and 1R,2R)-2-Cyanocyclohexyl]-3-{[2-(trifluoromethyl)pyridin-4-yl]amino}-1H-pyrazole-4-carboxamide]"
0.35 nM,2 nM,"N#C[C@H]1CCCC[C@@H]1n1cc(C(N)=O)c(Nc2ccc(S(=O)(=O)Nc3ccncc3)cc2)n1 (single isomer, unassigned) [Example 17-81, 1-[(1R,2R or 1S,2S)-2-cyanocyclohexyl]-3-{[4-(pyridin-4-ylsulfamoyl)phenyl]amino}-1H-pyrazole-4-carboxamide]"

SMILES,IC50 [1],IC50 [2]
"N#C[C@H]1CC(NCC(F)F)CC[C@@H]1n1cc(C(N)=O)c(Nc2ccc(S(=O)(=O)C(F)F)cc2)n1 (single isomer, unassigned) [Example 28-122, 1-{(1S,2S or 1R,2R)-2-cyano-4-[(2,2-difluoroethyl)amino]cyclohexyl}-3-({4-[(difluoro-methyl)sulfonyl]phenyl}amino)-1H-pyrazole-4-carboxamide]",0.9 nM,6 nM
